ChEMBL document CHEMBL1201862, “PubChem BioAssay data set” (2004)
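These data come from cells grown in 96-well plates and exposed to compound for 48 hours at five concentrations. GI50 is the concentration that inhibits growth by half.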 The source made the active and inactive calls. No stated cut-off is given here; in the data, active = GI50 up to about 1.1 µM and inactive = higher.

Key:
Test in all cases: NCI-60 cell line screen, 48 h
SK-MEL-2 = test system: SK-MEL-2
MOLT-4 = test system: MOLT-4
Malme-3M = test system: Malme-3M
UACC-62 = test system: UACC-62
RXF 393 = test system: RXF 393
SR = test system: SR
HCT-116 = test system: HCT-116
LOX IMVI = test system: LOX IMVI
A549 = test system: A549
HOP-62 = test system: HOP-62
HT-29 = test system: HT-29
HL-60 = test system: HL-60
OVCAR-8 = test system: OVCAR-8
COLO 205 = test system: COLO 205
HCT-15 = test system: HCT-15
IGROV-1 = test system: IGROV-1
KM12 = test system: KM12
HOP-92 = test system: HOP-92
CAKI-1 = test system: CAKI-1

| SMILES | GI50 (SK-MEL-2) | GI50 (MOLT-4) | GI50 (Malme-3M) | GI50 (UACC-62) | GI50 (RXF 393) | GI50 (SR) | GI50 (HCT-116) | GI50 (LOX IMVI) | GI50 (A549) | GI50 (HOP-62) | GI50 (HT-29) | GI50 (HL-60) | GI50 (OVCAR-8) | GI50 (COLO 205) | GI50 (HCT-15) [µM] | GI50 (IGROV-1) | GI50 (KM12) | GI50 (HOP-92) | GI50 (CAKI-1) |
| --- | --- | --- | --- | --- | --- | --- | --- | --- | --- | --- | --- | --- | --- | --- | --- | --- | --- | --- | --- |
| COc1c(C)cc2c(c1O)C1C3[C@H]4SC[C@@]5(NCCC6=C5NC5C=CC=CC65)C(=O)OCC(c5c6c(c(C)c(OC(C)=O)c54)OCO6)N3[C@@H](O)C(C2)N1C (some centres undefined) | < 0.01 µM (active) | < 0.01 µM (active) | < 0.01 µM (active) | < 0.01 µM (active) | < 0.01 µM (active) | < 0.01 µM (active) | < 0.01 µM (active) | < 0.01 µM (active) | < 0.01 µM (active) | < 0.01 µM (active) | < 0.01 µM (active) | < 0.01 µM (active) | < 0.01 µM (active) | < 0.01 µM (active) | < 0.01 | < 0.01 µM (active) | – | – | – |
| NC(CSSCC(N)Cc1ccccc1)Cc1ccccc1 (centres undefined) | 36.8 µM (inactive) | 30.1 µM (inactive) | 57.3 µM (inactive) | 23.1 µM (inactive) | – | 31 µM (inactive) | 35.2 µM (inactive) | 29.7 µM (inactive) | 65.8 µM (inactive) | > 100 µM (inactive) | 44 µM (inactive) | 32.7 µM (inactive) | 51.3 µM (inactive) | 32.7 µM (inactive) | 66.7 | > 100 µM (inactive) | 30.2 µM (inactive) | – | – |
| CC(=O)/C(=C\c1ccc(Cl)c(Cl)c1)C(=O)C(C)CN(C)C (centres undefined) | – | 2.19 µM (inactive) | 8.15 µM (inactive) | – | – | 1.82 µM (inactive) | 2.13 µM (inactive) | 2.21 µM (inactive) | 14.5 µM (inactive) | 19.1 µM (inactive) | 5.12 µM (inactive) | 2 µM (inactive) | 1.91 µM (inactive) | 11.4 µM (inactive) | 2.33 | 2.07 µM (inactive) | 2.18 µM (inactive) | 2.26 µM (inactive) | 4.48 µM (inactive) |
| COCN1COCN(C)C1=O | > 100 µM (inactive) | – | > 100 µM (inactive) | > 100 µM (inactive) | – | – | > 100 µM (inactive) | > 100 µM (inactive) | > 100 µM (inactive) | > 100 µM (inactive) | > 100 µM (inactive) | – | > 100 µM (inactive) | > 100 µM (inactive) | > 100 | > 100 µM (inactive) | > 100 µM (inactive) | > 100 µM (inactive) | > 100 µM (inactive) |
| COC(=O)/C(C#N)=C1\CCC(Nc2cccc(C(F)(F)F)c2)N1C (centres undefined) | > 100 µM (inactive) | 51.6 µM (inactive) | > 100 µM (inactive) | 61 µM (inactive) | 46.1 µM (inactive) | – | > 100 µM (inactive) | > 100 µM (inactive) | > 100 µM (inactive) | > 100 µM (inactive) | > 100 µM (inactive) | 61.7 µM (inactive) | > 100 µM (inactive) | – | – | > 100 µM (inactive) | 59.6 µM (inactive) | – | > 100 µM (inactive) |
| COc1ccc(NC(=O)CC/C(CC(=O)c2ccco2)=N/NC(=O)C(N)=O)cc1 | > 100 µM (inactive) | 46.9 µM (inactive) | 98.9 µM (inactive) | > 100 µM (inactive) | 61.9 µM (inactive) | – | – | > 100 µM (inactive) | > 100 µM (inactive) | > 100 µM (inactive) | > 100 µM (inactive) | 36 µM (inactive) | > 100 µM (inactive) | > 100 µM (inactive) | > 100 | > 100 µM (inactive) | > 100 µM (inactive) | – | > 100 µM (inactive) |
| CCCCCCCCCC(=O)NC(Cc1ccc(O)cc1)C(=O)NCCCNCCCCNCCCNC(=O)[C@@H](N)CCCN=C(N)N (some centres undefined) | – | > 100 µM (inactive) | 20.4 µM (inactive) | – | – | 73.3 µM (inactive) | > 100 µM (inactive) | 84.1 µM (inactive) | 76 µM (inactive) | 22.9 µM (inactive) | > 100 µM (inactive) | 16.2 µM (inactive) | 33.6 µM (inactive) | 13.8 µM (inactive) | 86.7 | 17.9 µM (inactive) | 20.9 µM (inactive) | – | – |
| COC(=O)c1cc(=O)nc2cc3cccccc3n12 | – | > 100 µM (inactive) | > 100 µM (inactive) | > 100 µM (inactive) | > 100 µM (inactive) | > 100 µM (inactive) | > 100 µM (inactive) | > 100 µM (inactive) | > 100 µM (inactive) | > 100 µM (inactive) | > 100 µM (inactive) | > 100 µM (inactive) | > 100 µM (inactive) | > 100 µM (inactive) | > 100 | > 100 µM (inactive) | > 100 µM (inactive) | – | – |
| O=C1CC(c2c[nH]c3ccccc23)C(=O)N1 (centres undefined) | > 100 µM (inactive) | > 100 µM (inactive) | > 100 µM (inactive) | > 100 µM (inactive) | > 100 µM (inactive) | – | > 100 µM (inactive) | – | > 100 µM (inactive) | > 100 µM (inactive) | > 100 µM (inactive) | > 100 µM (inactive) | > 100 µM (inactive) | – | > 100 | > 100 µM (inactive) | > 100 µM (inactive) | – | > 100 µM (inactive) |
| CCOC(=O)CC1=Nc2ccccc2SC1 | > 100 µM (inactive) | > 100 µM (inactive) | > 100 µM (inactive) | > 100 µM (inactive) | > 100 µM (inactive) | – | > 100 µM (inactive) | > 100 µM (inactive) | > 100 µM (inactive) | > 100 µM (inactive) | > 100 µM (inactive) | – | > 100 µM (inactive) | > 100 µM (inactive) | > 100 | > 100 µM (inactive) | > 100 µM (inactive) | > 100 µM (inactive) | > 100 µM (inactive) |
| C[C@]12CC/C(=N\O)C=C1CC[C@@H]1C2CC[C@@]2(C)C1CC[C@@H]2OC1CCCCO1 (some centres undefined) | 16.7 µM (inactive) | 12.4 µM (inactive) | 21.9 µM (inactive) | > 10 µM (inactive) | 25.4 µM (inactive) | – | 20.1 µM (inactive) | 17.7 µM (inactive) | 22.6 µM (inactive) | 31.2 µM (inactive) | 14.3 µM (inactive) | – | > 100 µM (inactive) | 17.4 µM (inactive) | 20.1 | 35.6 µM (inactive) | 16.7 µM (inactive) | 17.7 µM (inactive) | > 10 µM (inactive) |
| CSc1c([S+](C)[O-])[nH]c2cc(Br)cc(Br)c12 (centres undefined) | – | 18.1 µM (inactive) | 24.9 µM (inactive) | 17.9 µM (inactive) | 14 µM (inactive) | – | 17.6 µM (inactive) | 16.2 µM (inactive) | 24 µM (inactive) | – | 26.9 µM (inactive) | 21.3 µM (inactive) | 22 µM (inactive) | 18 µM (inactive) | 22.8 | 37.1 µM (inactive) | 24.6 µM (inactive) | 10.9 µM (inactive) | 25.1 µM (inactive) |
| C[C@@H](NC1CCC[C@@H]1O)c1ccccc1 (some centres undefined) | > 100 µM (inactive) | > 100 µM (inactive) | > 100 µM (inactive) | > 100 µM (inactive) | > 100 µM (inactive) | – | > 100 µM (inactive) | > 100 µM (inactive) | > 100 µM (inactive) | > 100 µM (inactive) | > 100 µM (inactive) | > 100 µM (inactive) | > 100 µM (inactive) | > 100 µM (inactive) | > 100 | > 100 µM (inactive) | > 100 µM (inactive) | > 100 µM (inactive) | > 100 µM (inactive) |
| O=C(NO)C12C3C4C1C1C2C3C41C(=O)NO (centres undefined) | > 100 µM (inactive) | > 100 µM (inactive) | > 100 µM (inactive) | > 100 µM (inactive) | > 100 µM (inactive) | – | > 100 µM (inactive) | > 100 µM (inactive) | > 100 µM (inactive) | > 100 µM (inactive) | > 100 µM (inactive) | > 100 µM (inactive) | > 100 µM (inactive) | > 100 µM (inactive) | > 100 | – | > 100 µM (inactive) | – | > 100 µM (inactive) |
| CCC(=O)NCC1(c2c[nH]c3ccccc23)SCCS1 | > 100 µM (inactive) | 42.4 µM (inactive) | > 100 µM (inactive) | 63.4 µM (inactive) | – | > 100 µM (inactive) | 48.1 µM (inactive) | > 100 µM (inactive) | > 100 µM (inactive) | > 100 µM (inactive) | 53 µM (inactive) | > 100 µM (inactive) | > 100 µM (inactive) | > 100 µM (inactive) | > 100 | > 100 µM (inactive) | > 100 µM (inactive) | > 100 µM (inactive) | > 100 µM (inactive) |
| CCOC1=NC(=O)CC(c2ccccc2)S1 (centres undefined) | > 100 µM (inactive) | > 100 µM (inactive) | > 100 µM (inactive) | > 100 µM (inactive) | 36.4 µM (inactive) | – | > 100 µM (inactive) | > 100 µM (inactive) | > 100 µM (inactive) | – | > 100 µM (inactive) | > 100 µM (inactive) | > 100 µM (inactive) | > 100 µM (inactive) | > 100 | > 100 µM (inactive) | > 100 µM (inactive) | > 100 µM (inactive) | > 100 µM (inactive) |
| O=C(/C(=C\c1ccc(Cl)cc1)c1ccccc1)c1ccccc1 | 11.7 µM (inactive) | 51.3 µM (inactive) | 57 µM (inactive) | > 100 µM (inactive) | – | 40.8 µM (inactive) | 29.7 µM (inactive) | 29.9 µM (inactive) | – | 63.2 µM (inactive) | 43.8 µM (inactive) | 15 µM (inactive) | > 100 µM (inactive) | > 100 µM (inactive) | 90.4 | > 100 µM (inactive) | 22 µM (inactive) | 4.74 µM (inactive) | – |
